Experimental data as given in patent US20250248980A1, “IMMUNE MODULATORY AGENTS” (PRESIDENT AND FELLOWS OF HARVARD COLLEGE, priority 2022, published 2025).
“Also recorded” adds a separate entry of the source.

How the values were obtained:
Type in all cases: cell-based
[1] = molecular target: T1, TNF-a receptor (TNF-R1 reporter cells) (Homo sapiens, UniProt P19438); experiment: TNF-a-receptor GFP reporter cell screen; conditions: for specificity for TNF-a-receptor reporter over other cytokine receptor reporters: in words; for IC50 / Emax: reducing TNF-a-receptor reporter activities; for IC50: GFP percentage by microscope, 48 hours; for Emax: maximal effect at high compound concentrations, read-out: Emax
T1 construct: expressed in transfected cells; development described in WO2022125865A2
Experimental: (§1) FIG. 5 is a dot plot showing the identification of small-molecule compounds that reduce IL-17A or TNF-a receptor activities. Small-molecule screens were performed with 114,665 compounds. Individual compounds were added to IL-17A-reporters or TNF-a-reporters following the addition of respective ligands such as IL-17A or TNF-a (25 ng/ml). The reporter cells were then incubated for additional 48 hours before subjecting them for microscopic analyses (GFP percentage was measured by microscope). Anti-IL17A and anti-TNFa antibodies were used as the positive controls.
The IL-17RA/IL-17RC reporter system was used to identify the IL-17a-specific immune modulatory agents, as described herein (see e.g., compounds (1)-(16)). Furthermore, the IL-17A systems and methods were applied to generate other cytokine/cytokine receptor reporter system (tTA fused onto one receptor subunit via a protease cleavage site, TEV fused to another receptor subunit, optimal linkers inserted between different proteins to ensure high signal-to-background ratio; e.g., for identifying TNF-α-specific immune modulatory agents). The screening platform provided herein was used to identify immune modulatory agents including, but not limited to, small molecules and proteins that modulate IL-17A or TNF-α cytokine signaling.
(§2) Two thousand reporter cells per well (384-well plates) were seeded in 30 ul cell culture medium with either IL-17A (25 ng/ml, unless otherwise indicated) or TNFa ligand (25 ng/ml, unless otherwise indicated); additional screens were performed with IL-17A at 7.5 ng/ml. Then 100 nl of the individual compound was added by a pin transfer and cultured for two days in a CO2 incubator. For the cell viability test, 10 ul HOECHST 33342 was added and incubated for 10 min, followed by the addition of 10 ul 4% PFA. After a 10 min incubation, the reporter cells were washed twice with phosphate-buffered saline (PBS) and kept in 30 ul PBS. The images were acquired and analyzed using an IMAGEXPRESS confocal microscope. For storage, plates were sealed with black light-absorbing films.

[2] = test system: TNF-a downstream genes; experiment: TNF-a-dependent gene expression in three cell lines (RT-qPCR, secondary assays, FIG. 12); conditions: 10 μM compound, 5 ng/ml TNF-a, 24 hours, THP-1, 293T, HepG2 cells
Experimental: (§3) THP-1 (FIG. 12A), 293T (FIG. 12B), and HepG2 (FIG. 12C) cells were cultured and stimulated with 5 ng/ml TNF-a for 24 hours. During the treatment, 10 μM of each compound was added. RT-qPCR was used to analyze the expression levels of selected TNF-a downstream genes (IL1b, CCL4 and CXCL1 in THP-1 cells in FIG. 12A; IL18, VCAM, and CXCL10 in 293T cells in FIG. 12B; and IL18, CXCL1, and CXCL5 in HepG2 cells in FIG. 12C).

[3] = test system: TNF-a downstream genes in THP-1 cells; experiment: TNF-a-dependent gene expression in THP-1 cells (RT-qPCR, FIG. 12A); conditions: 10 μM compound, 5 ng/ml TNF-a, 24 hours; IL1b, CCL4, CXCL1
Experimental: as §3

[4] = test system: TNF-a downstream genes in HepG2 cells; experiment: TNF-a-dependent gene expression in HepG2 cells (RT-qPCR, FIG. 12C); conditions: 10 μM compound, 5 ng/ml TNF-a, 24 hours; IL18, CXCL1, CXCL5
Experimental: as §3

[5] = test system: TNF-a downstream genes in 293T cells; experiment: TNF-a-dependent gene expression in 293T cells (RT-qPCR, FIG. 12B); conditions: 10 μM compound, 5 ng/ml TNF-a, 24 hours; IL18, VCAM, CXCL10
Experimental: as §3

[6] = molecular target: T2, IL-17 receptor (the IL-17RA-IL-17RC heterodimer) (Mus musculus, UniProt Q60943+Q8K4C2, F156E); experiment: IL-17A-receptor (IL-17RA/IL-17RC) GFP reporter cell screen; conditions: reducing IL-17A-receptor reporter activities; for IC50: GFP percentage by microscope, 48 hours; for Emax: maximal effect at high compound concentrations
T2 sequence (Q60943 32-358): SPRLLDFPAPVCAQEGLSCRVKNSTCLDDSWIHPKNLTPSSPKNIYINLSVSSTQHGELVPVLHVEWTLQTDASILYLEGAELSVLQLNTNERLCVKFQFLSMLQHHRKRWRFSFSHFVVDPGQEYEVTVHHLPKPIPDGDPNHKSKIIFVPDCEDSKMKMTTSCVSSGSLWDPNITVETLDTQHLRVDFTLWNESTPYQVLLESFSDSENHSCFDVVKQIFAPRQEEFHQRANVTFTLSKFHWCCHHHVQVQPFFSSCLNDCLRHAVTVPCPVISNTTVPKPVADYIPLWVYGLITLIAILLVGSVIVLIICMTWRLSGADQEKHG
T2 sequence (Q8K4C2 22-500 F156E): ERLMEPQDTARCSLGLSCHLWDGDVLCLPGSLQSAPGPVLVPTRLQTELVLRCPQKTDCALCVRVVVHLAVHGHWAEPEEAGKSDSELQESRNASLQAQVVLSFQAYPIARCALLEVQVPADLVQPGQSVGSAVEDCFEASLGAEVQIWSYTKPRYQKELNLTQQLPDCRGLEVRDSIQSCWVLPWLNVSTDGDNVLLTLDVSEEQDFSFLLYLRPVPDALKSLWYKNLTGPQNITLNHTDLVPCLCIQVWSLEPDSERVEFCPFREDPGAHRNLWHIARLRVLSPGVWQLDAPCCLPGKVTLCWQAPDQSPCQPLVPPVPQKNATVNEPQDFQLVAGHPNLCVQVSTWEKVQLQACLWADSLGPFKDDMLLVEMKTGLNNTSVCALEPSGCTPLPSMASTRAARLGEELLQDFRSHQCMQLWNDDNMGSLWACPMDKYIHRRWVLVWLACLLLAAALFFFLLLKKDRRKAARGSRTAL
T2 sequence (Q62386 26-158 partner): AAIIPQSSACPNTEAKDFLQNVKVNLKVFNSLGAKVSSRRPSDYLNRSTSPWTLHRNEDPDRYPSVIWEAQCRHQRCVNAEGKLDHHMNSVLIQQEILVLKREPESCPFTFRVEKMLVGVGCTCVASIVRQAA
Experimental: as §1
To identify small molecule compounds that control IL-17R activity, a screening platform was used to monitor IL-17a binding to its receptor. Upon IL-17a binding to its receptor subunit A (IL-17RA), another receptor subunit IL-17RC is recruited, and these two subunits form a heterodimer. In the exemplary reporter system, a transcription factor (tTA) was tethered, via a protease cleavage site, to IL-17RA. In addition, a tobacco etch virus (TEV) protease was fused to the receptor subunit IL-17RC. Upon the IL-17a-dependent recruitment of IL-17RC-TEV to IL-17RA-tTA, the tTA is cleaved off from its membrane anchor IL-17RA. The released tTA then enters the nucleus and activates the reporter gene (e.g., in this case, GFP). The IL-17RA/RC reporter system responds highly selectively to IL-17a, but not to other related IL-17 family cytokines (except IL-17f).
as §2

[7] = test system: IL17A-dependent gene expression in mouse keratinocytes; experiment: IL17A-dependent gene expression in mouse keratinocytes (RT-qPCR, secondary assay, FIG. 11); conditions: 10 μM compound, 5 ng/ml IL17A, 24 hours
Experimental: Mouse keratinocytes were cultured and stimulated with 5 ng/ml IL17A for 24 hours. During the treatment, 10 μM of each compound was added, and reverse transcription-quantitative polymerase chain reaction (RT-qPCR) was used for the gene expression level analyses of the following genes: cxcl1, cxcl2, cxcl5, 24p3, zc3h12a, S100a8, and S100a9. The top-down order of the treatment conditions indicated in the legend correspond to the left-right order of the bars for each gene. […] Compounds C770-0711 (2), C770-0720 (3), 60546479 (6), C881-0413 (9), and LAS 51593897 (11) are also of interest (see grey boxes).

Row | SMILES | specificity for TNF-a-receptor reporter over other cytokine receptor reporters [1] | IC50 [1] [µM] | Emax [1] [%] | effect on TNF-a-dependent gene expression [2] | IC50 [6] [µM] | Emax [6] [%] | effect on IL17A-dependent gene expression [7] | further results
1 | O=C(CSc1c2c(nc3ccccc13)CCC2)Nc1ccc(F)cc1 [Compound 39] | reduce TNF-a-, not IL-17A-, receptor reporter activities | 8.91 | 78 | inhibitory effects against some of TNF-a downstream genes; also recorded: robust inhibitory effects |  |  |  | 
2 | O=c1ccc(-c2ccccc2)nn1Cc1c(F)cccc1Cl [Compound 19] | reduce TNF-a-, not IL-17A-, receptor reporter activities | 7.46 | 98 | inhibitory effects against some of TNF-a downstream genes |  |  |  | effect on TNF-a-dependent gene expression in THP-1 cells [3]: robust inhibitory effects; effect on TNF-a-dependent gene expression in HepG2 cells [4]: enhanced effects; effect on TNF-a-dependent gene expression in 293T cells [5]: enhanced effects
3 | CCOc1ccc(S(=O)(=O)c2c(C(=O)c3ccc(CC)cc3)cnc3ccc(C)cc23)cc1 [Compound 3] |  |  |  |  | 12.2 | 44 | inhibitory activities | 
4 | CC(C)CCN1C2CCNc3ccccc3CN(C(=O)CCCn3cncn3)CC1CC2 (racemic) [Compound 43] |  |  |  | inhibitory effects against some of TNF-a downstream genes |  |  |  | 
5 | CCOc1ccc(S(=O)(=O)c2c(C(=O)c3ccc(C)c(C)c3)cnc3ccccc23)cc1 [Compound 2] |  |  |  |  | 31.4 | 82 | inhibitory activities | 
6 | CC(=O)N1CCCN(S(C)(=O)=O)CCN(Cc2cccc(F)c2O)Cc2ccccc21 [Compound 15] |  |  |  | inhibitory effects against some of TNF-a downstream genes |  |  |  | 
